Reference: patent US11484559B2, “Kapok tree flower extract, and cosmetic, pharmaceutical or dermatological compositions containing same” (Laboratoires Expanscience, priority 2017, dated 2022)

Columns and labels:
Prostaglandin E2 (PGE2) = experiment: Production of PGE2 in keratinocytes stimulated by PMA (ELISA); format: cell-based, human; conditions: indomethacin at 0.1 μM
Method: The keratinocytes were then stimulated by 10 μg/ml of PMA (Phorbol Myristate Acetate) and incubated overnight with KPO extract or reference molecules. […] The significance was evaluated by means of one-factor variance analysis followed by a Tukey test: *p<0.05; ***p<0.001; ns: non-significant p>0.05.

[1] = test system: intracellular ROS (Reactive Oxygen Species); experiment: Production of ROS in keratinocytes subjected to H2O2 stress (DCFH-DA probe); format: cell-based, human; conditions: for ROS Mean: H2O2 100 μM
Method: The antioxidant potential of the KPO extract was evaluated in an assay model of intracellular ROS (Reactive Oxygen Species) induced by pro-oxidising H2O2 stress. Normal human epidermal keratinocytes were pre-incubated for 24 hours with KPO extract at 0.001%, 0.002% or 0.005% (d.e.) or reference anti-inflammatory molecules Quercetin at 10 μM or Vitamin C at 500 μM. The cell layer was then contacted with a DCFH-DA probe prior to induction of oxidative stress by 100 μM of H2O2. The amount of ROS produced was evaluated by measuring the fluorescence emitted when the probe is oxidised. The results were analysed statistically by one-factor variance analysis followed by a Tukey test: **p<0.01; ***p<0.001.

Collagen VII = experiment: Gene expression in normal human dermal fibroblasts (RT-qPCR): Collagen VII; format: cell-based; conditions: TGFβ1 5 ng/ml
Method: (§1) The effect of the KPO extract was evaluated on the gene expression of markers involved in cell communication and in the organisation of the dermal extracellular matrix in the fibroblasts: normal human dermal fibroblasts were incubated for 6 hours or 24 hours with 0.0005% or 0.001% KPO extract (d.e.) or TGFβ1 at 5 ng/ml (positive control for dermal matrix induction markers). At the end of incubation, the gene expression of the following markers was analysed by RT-qPCR. • CTNNA1 (Catenin α): binds to cadherins to promote cellular interactions. • Syndecan: proteoglycan which consolidates cell/cell and cell/matrix interactions. • Laminin 5 (α3β3γ2): a molecule that assists adhesion to the basal membrane. • TNC (Tenacin C): extracellular matrix proteins involved in cohesion of the dermo-epidermal junction and which promote the synthesis of collagen VII. • SPARC: protein associated with various constituents of the extracellular matrix and which contributes to its organisation. • BGN (Biglycan): proteoglycan involved in the assembly of collagen fibres. • Versican: a major component of the ECM which plays a central role in the morphogenesis and maintenance of tissues. […]
(§2) The results are given as relative quantities (RQ) with respect to the untreated control. […]

Collagen I = experiment: Gene expression in normal human dermal fibroblasts (RT-qPCR): Collagen I; format: cell-based; conditions: TGFβ1 5 ng/ml
Method: as §1, §2

Fibronectin = experiment: Gene expression in normal human dermal fibroblasts (RT-qPCR): Fibronectin; format: cell-based; conditions: TGFβ1 5 ng/ml
Method: as §1, §2

TNC (Tenacin C) = experiment: Gene expression in normal human dermal fibroblasts (RT-qPCR): TNC; format: cell-based; conditions: TGFβ1 5 ng/ml
Method: as §1, §2

Dermatopontin = experiment: Gene expression in normal human dermal fibroblasts (RT-qPCR): Dermatopontin; format: cell-based; conditions: TGFβ1 5 ng/ml
Method: as §1, §2

Versican = experiment: Gene expression in normal human dermal fibroblasts (RT-qPCR): Versican; format: cell-based; conditions: TGFβ1 5 ng/ml
Method: as §1, §2

Collagen III = experiment: Gene expression in normal human dermal fibroblasts (RT-qPCR): Collagen III; format: cell-based; conditions: TGFβ1 5 ng/ml
Method: as §1, §2

Elastin = experiment: Gene expression in normal human dermal fibroblasts (RT-qPCR): Elastin; format: cell-based; conditions: TGFβ1 5 ng/ml
Method: as §1, §2

LOXL = experiment: Gene expression in normal human dermal fibroblasts (RT-qPCR): LOXL; format: cell-based; conditions: TGFβ1 5 ng/ml
Method: as §1, §2

BGN (Biglycan) = experiment: Gene expression in normal human dermal fibroblasts (RT-qPCR): BGN; format: cell-based; conditions: TGFβ1 5 ng/ml
Method: as §1, §2

CTNNA1 (Catenin α) = experiment: Gene expression in normal human dermal fibroblasts (RT-qPCR): CTNNA1; format: cell-based; conditions: TGFβ1 5 ng/ml
Method: as §1, §2

SPARC = experiment: Gene expression in normal human dermal fibroblasts (RT-qPCR): SPARC; format: cell-based; conditions: TGFβ1 5 ng/ml
Method: as §1, §2

Syndecan = experiment: Gene expression in normal human dermal fibroblasts (RT-qPCR): Syndecan; format: cell-based; conditions: TGFβ1 5 ng/ml
Method: as §1, §2

Collagen IV = experiment: Gene expression in normal human dermal fibroblasts (RT-qPCR): Collagen IV; format: cell-based; conditions: TGFβ1 5 ng/ml
Method: as §1, §2

COc1ccc2c(c1)c(CC(=O)O)c(C)n2C(=O)c1ccc(Cl)cc1 [Indo, indomethacin]
PGE2 change vs PMA (Prostaglandin E2 (PGE2)): −77% vs PMA *** | PGE2 Mean (Prostaglandin E2 (PGE2); PMA stimulated): 181.780 (pg/ml)/OD neutral red

O=c1c(O)c(-c2ccc(O)c(O)c2)oc2cc(O)cc(O)c12 [Quercetin]
ROS change vs H2O2 ([1]; Quercetin at 10 μmol/l): −90% vs H2O2 *** | ROS Mean ([1]; Quercetin at 10 μmol/l): 12959.361 Arbitrary Unit

O=C1O[C@H]([C@@H](O)CO)C(O)=C1O [Vit C, Vitamin C]
ROS change vs H2O2 ([1]; Vit C 500 μM): −90% vs H2O2 *** | ROS Mean ([1]; Vit C 500 μM): 12807.703 Arbitrary Unit

TGFβ1: positive control for dermal matrix induction markers
Collagen VII Degree of expression (Relative Quantity) (Collagen VII; 6 h of treatment): 1.96 *** | Collagen VII Degree of expression (Relative Quantity) (Collagen VII; 24 h of treatment): 3.07 *** | Collagen I Degree of expression (Relative Quantity) (Collagen I; 6 h of treatment): 0.84 ns | Collagen I Degree of expression (Relative Quantity) (Collagen I; 24 h of treatment): 2.30 * | Fibronectin Degree of expression (Relative Quantity) (Fibronectin; 6 h of treatment): 1.09 ns | Fibronectin Degree of expression (Relative Quantity) (Fibronectin; 24 h of treatment): 2.12 * | TNC Degree of expression (Relative Quantity) (TNC (Tenacin C); 6 h of treatment): 0.94 ns | TNC Degree of expression (Relative Quantity) (TNC (Tenacin C); 24 h of treatment): 1.79 * | Dermatopontin Degree of expression (Relative Quantity) (Dermatopontin; 6 h of treatment): 1.14 ns | Dermatopontin Degree of expression (Relative Quantity) (Dermatopontin; 24 h of treatment): 1.36 * | Versican Degree of expression (Relative Quantity) (Versican; 6 h of treatment): 1.61 ns | Versican Degree of expression (Relative Quantity) (Versican; 24 h of treatment): 2.87 ** | Collagen III Degree of expression (Relative Quantity) (Collagen III; 6 h of treatment): 0.91 ns | Collagen III Degree of expression (Relative Quantity) (Collagen III; 24 h of treatment): 1.24 ns | Elastin Degree of expression (Relative Quantity) (Elastin; 6 h of treatment): 0.72 ns | Elastin Degree of expression (Relative Quantity) (Elastin; 24 h of treatment): 3.65 ** | LOXL Degree of expression (Relative Quantity) (LOXL; 6 h of treatment): 1.05 ns | LOXL Degree of expression (Relative Quantity) (LOXL; 24 h of treatment): 1.10 ns | BGN Degree of expression (Relative Quantity) (BGN (Biglycan); 6 h of treatment): 1.28 ns | BGN Degree of expression (Relative Quantity) (BGN (Biglycan); 24 h of treatment): 2.92 *** | CTNNA1 Degree of expression (Relative Quantity) (CTNNA1 (Catenin α); 6 h of treatment): 1.07 ns | CTNNA1 Degree of expression (Relative Quantity) (CTNNA1 (Catenin α); 24 h of treatment): 1.07 ns | SPARC Degree of expression (Relative Quantity) (SPARC; 6 h of treatment): 1.28 ns | SPARC Degree of expression (Relative Quantity) (SPARC; 24 h of treatment): 2.00 *** | Syndecan Degree of expression (Relative Quantity) (Syndecan; 6 h of treatment): 1.85 ns | Syndecan Degree of expression (Relative Quantity) (Syndecan; 24 h of treatment): 8.08 *** | Collagen IV Degree of expression (Relative Quantity) (Collagen IV; 6 h of treatment): 1.68 *** | Collagen IV Degree of expression (Relative Quantity) (Collagen IV; 24 h of treatment): 2.81 **
